Read-outs that look alike come from different tables or passages of the source. Values belong to the compound of their own block, whether it stands above or below them. Where a SMILES comes first, the peptide text is derived from it. [ ]: non-standard residue; d: D form. The star is where a group is joined. Trp(6-Cl) = N[C@@H](Cc1c[nH]c2cc(Cl)ccc12)C(=O)O; Phe(3-CN) = N#Cc1cccc(C[C@H](N)C(=O)O)c1; Phe(4-CN) = N#Cc1ccc(C[C@H](N)C(=O)O)cc1; Phe(4-Cl) = N[C@@H](Cc1ccc(Cl)cc1)C(=O)O; Pip = O=C(O)[C@@H]1CCCCN1; ClAc = O=C(CCl)*
How the values were obtained:
Pin1 [1] = target: T1, Pin1 (Homo sapiens, UniProt Q13526); assay: DELFIA displacement assay (displacement of biotinylated D-peptide from 6His-Pin1); type: binding; parameters: human Pin1 (residues 1-163); made in house; host or cells: E. coli BL21 (DE3) gold pLysS
T1 sequence (Q13526 whole entry, the tested form may be a part): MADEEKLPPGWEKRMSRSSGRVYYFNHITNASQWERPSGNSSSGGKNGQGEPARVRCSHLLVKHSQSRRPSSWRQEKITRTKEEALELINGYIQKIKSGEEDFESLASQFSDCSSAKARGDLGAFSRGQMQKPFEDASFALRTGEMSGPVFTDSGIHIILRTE
From the text: (§1) Important to the success of structure activity relations studies, robust biochemical, biophysical, and cell-based assays were implemented that enabled rapid and iterative evaluations of test Pin1 targeting agents. First, the DELFIA (Dissociation-enhanced lanthanide fluorescent immunoassay) assay platform was used to derive a robust heterogeneous assay to monitor the ability of test agents to displace the binding between Pin1 and the D-Peptide (Table 1), which was obtained in a biotinylated form (FIG. 10). […] Second, for an orthogonal biophysical assay denaturation thermal shift measurements were used. Pin1 was incubated with vehicle control (buffer with 1% DMSO), or test agents at protein: ligand ratio of 1:2 (20 μM protein-40 μM compound) for 10 min at 10° C. in the presence of the fluorescent dye SYPRO Orange. The samples were gradually exposed to increasing temperature (linear gradient from 10° C. to 95° C.), causing the protein to unfold. This unfolding allowed the fluorescent dye to bind to the protein's exposed hydrophobic residues, resulting in an increase in fluorescence. The thermal shift assay measures the protein's melting temperature (Tm), which is the temperature at which the protein denatures by 50%. Ligands can affect a protein target to thermal denaturation, which could manifest in a positive or negative shift in the protein denaturation temperature (ΔTm) (Bai N, Roder H, Dickson A, & Karanicolas J (2019) Scientific Reports 9; and Kranz J K & Schalk-Hihi C (2011) Fragment-Based Drug Design: Tools, Practical Approaches, and Examples 493:277-298). Using these two assays, a series of commercially available Pin1 inhibitors were profiled (Table 1). The non-covalent agent D-peptide resulted only moderately active, with an IC50 value of ˜3 μM that closely resembled the dissociation constant for this agent determined via isothermal titration calorimetry, and the ˜ 3 μM IC50 value as reported by a fluorescence polarization assay (Pinch B J, et al. (2020) Nat Chem Biol 16(9):979-987). […] (Table 1) was observed.
For the reported covalent agents such as sulfopin (Dubiella C, et al. (2021) Nat Chem Biol 17(9):954-963), BJP-07-017-3 (Pinch B J, et al. (2020) Nat Chem Biol 16(9):979-987), or KPT-6566 (Campaner E, et al. (2017) Nat Commun 8:15772), a 6-h pre-incubation period was included in the DELFIA assay to allow the covalent reaction to take place. For those agents, IC50 values that fell in the low nanomolar range were observed, consistent with what was reported previously for those compounds. […] To make those determinations in a broader panel of cancer cell lines three pancreatic cancer cell lines, BxPC3, MIA-PaCa-2, and PANC-1, the breast cancer cell line MDA-MB-231, the prostate cancer cell line PC3, and the non-small cell lung cancer cell line A549 were chosen. Each cell line represents various states of KRAS activating mutations (for example BxPC3 is wt-KRAS, while MIAPaCa2 carries the KRAS(G12C) mutation, and the PANC-1 the KRAS(G12D) (Miquel M, Zhang S, & Pilarsky C (2021) Front Cell Dev Biol 9:748631), A549 is KRAS(G12S) (Wang H, et al. (2019) EBioMedicine 49:106-117), MDA-MB-231 is KRAS(G13D) (Kim R K, et al. (2015) Exp Mol Med 47(1):e137), PC3 is wt-KRAS (Bouali S, et al. (2009) Oncol Rep 21(3):731-735). Pin1 protein levels in these cell lines were established using a specific Pin1 antibody in western blot analyses (FIG. 1A). The data confirmed that all these selected human cancer cell lines expressed a significant level of Pin1 (FIG. 1A).
Each well of 96-well streptavidin-coated plates (PerkinElmer) was incubated with 100 μL of 200 nM biotinylated D-peptide for 2 h and washed 3 times with a wash solution (PerkinElmer). Subsequently, a mixture containing Pin1, and a serial dilution of the test compounds were pre-incubated for 6 h. Eu-N1-labeled anti-6x-His antibody (PerkinElmer, 1:2000) was then added to this mixture and further incubated in the biotinylated D-peptide-bound plates for another 2 h. […]

Pin1 [2] = target: T1, Pin1; assay: Denaturation thermal shift assay (SYPRO Orange); type: binding; parameters: human Pin1 (residues 1-163); made in house; host or cells: E. coli BL21 (DE3) gold pLysS; conditions: for share of first denaturation transition / share of first thermal shift peak: percentage in brackets after first ΔTm; for share of second denaturation transition / share of second thermal shift peak: percentage in brackets after second ΔTm; for ΔTm (° C.), first of two denaturation transitions: two transitions observed
From the text: as §1
Thermal shift assays for Pin1 alone and in the presence of the inhibitors were obtained with a BioRad CFX Connect Real-Time PCR Detection System. Each data point was collected in quadruplicate. Each sample was prepared using buffer 50 mM Phosphate pH 7.5, 150 mM NaCl, 1% DMSO. Protein: ligand ratio used was 1:2 (20 μM protein-40 μM compound), and SYPRO Orange was used. Incubation of the Pin1 protein with the compounds was performed at 10° C. for 10 min. Samples were then heated from 10 to 95° C. with heating increments of 0.05° C., over 30 min. Fluorescence intensity was measured within the excitation/emission ranges 470-505/540-700 nm.

[3] = Table 4, likely incomplete complex formation
[4] = Table 5, only one transition given
[5] = Table 4, single transition, ± SE of four replicates
[6] = Table 3, single transition, ± SE of four replicates
[7] = Table 3, two peaks observed, likely incomplete complex formation
[8] = running text and figure legends

IC50 (Pin1 [1]; Table 4, ± SD from duplicates): 0.035 ± 0.005 µM | ΔTm (° C.) (Pin1 [2]; [5]): −20.46 ± 0.04 °C
SMILES: NC(=O)[C@H](Cc1c[nH]c2ccccc12)NC(=O)[C@@H]1C[C@H]2CCCC[C@@H]2N1C(=O)[C@@H]1Cc2c([nH]c3ccccc23)CN1C(=O)CCl [164A4]

IC50 (Pin1 [1]; Table 4, ± SD from duplicates): 0.031 ± 0.001 µM | ΔTm (° C.) (Pin1 [2]; [5]): −9.21 ± 0.08 °C
SMILES: NC(=O)[C@H](Cc1c[nH]c2cc(Cl)ccc12)NC(=O)[C@@H]1CCCCN1C(=O)[C@H](Cc1c[nH]c2ccccc12)NC(=O)CCl [158H12] (ClAc-Trp-[Pip]-[Trp(6-Cl)]-NH2)

IC50 (Pin1 [1]; Table 3, ± SD from duplicates): 0.044 ± 0.008 µM | IC50 (Pin1 [1]; [8]): 0.043 µM | ΔTm (° C.) (Pin1 [2]; [6]): −9.42 ± 0.18 °C
SMILES: NC(=O)[C@H](Cc1c[nH]c2ccccc12)NC(=O)[C@@H]1CCCCN1C(=O)[C@H](Cc1c[nH]c2ccccc12)NC(=O)CCl [158G9] (HELM PEPTIDE1{[O=C(CCl)[*:2]].W.[O=C([C@@H]1CCCCN1[*:1])[*:2]].W.[am]}$$$$V2.0)

IC50 (Pin1 [1]; Table 3, ± SD from duplicates): 0.132 ± 0.021 µM | ΔTm (° C.) (Pin1 [2]; [6]): −10.06 ± 0.07 °C
SMILES: N#Cc1cccc(C[C@H](NC(=O)CCl)C(=O)N2CCCC[C@H]2C(=O)N[C@@H](Cc2c[nH]c3ccccc23)C(N)=O)c1 [158G3] (ClAc-[Phe(3-CN)]-[Pip]-Trp-NH2)

Second part, the compound before the results:

SMILES: O=C(NCCc1c[nH]c2cc(Cl)cc(Cl)c12)[C@@H]1CCCCN1C(=O)[C@@H]1Cc2c([nH]c3ccccc23)CN1C(=O)CCl [164A5]
IC50 (Pin1 [1]; Table 4, ± SD from duplicates): 0.433 ± 0.065 µM | share of first denaturation transition (Pin1 [2]; Table 4): 70% | share of second denaturation transition (Pin1 [2]; Table 4): 30% | ΔTm (° C.), first of two denaturation transitions (Pin1 [2]; [3]): +0.66 ± 0.28 °C | ΔTm (° C.) (Pin1 [2]; [4]): +0.66 ± 0.28 °C

SMILES: N#Cc1ccc(C[C@H](NC(=O)CCl)C(=O)N2CCCC[C@H]2C(=O)N[C@@H](Cc2c[nH]c3ccccc23)C(N)=O)cc1 [158G4] (ClAc-[Phe(4-CN)]-[Pip]-Trp-NH2)
IC50 (Pin1 [1]; Table 3, ± SD from duplicates): 0.118 ± 0.021 µM | ΔTm (° C.) (Pin1 [2]; [6]): −9.71 ± 0.07 °C

SMILES: NC(=O)[C@H](Cc1c[nH]c2ccccc12)NC(=O)[C@@H]1C[C@H]2CCCC[C@@H]2N1C(=O)[C@H](Cc1c[nH]c2ccccc12)NC(=O)CCl [164A1]
IC50 (Pin1 [1]; Table 5): 1.83 ± 0.394 µM | share of first denaturation transition (Pin1 [2]; Table 4): 80% | share of second denaturation transition (Pin1 [2]; Table 4): 20% | ΔTm (° C.), first of two denaturation transitions (Pin1 [2]; [3]): −0.38 ± 0.15 °C

SMILES: O=C(CCl)N[C@@H](Cc1ccccc1)C(=O)N1CCCC[C@H]1C(=O)NCCc1c[nH]c2cc(Cl)cc(Cl)c12 [158G6]
IC50 (Pin1 [1]; Table 3, ± SD from duplicates): 0.327 ± 0.018 µM | share of first thermal shift peak (Pin1 [2]; Table 3): 70% | share of second thermal shift peak (Pin1 [2]; Table 3): 30% | ΔTm (° C.), first of two peaks (Pin1 [2]; [7]): +1.04 ± 0.08 °C | ΔTm (° C.) (Pin1 [2]; [4]): +1.04 ± 0.08 °C

SMILES: O=C(CCl)N[C@@H](Cc1ccccc1)C(=O)N1CCCC[C@H]1C(=O)NCCc1c[nH]c2ccc(F)cc12 [158G7]
IC50 (Pin1 [1]; Table 3, ± SD from duplicates): 1.04 ± 0.316 µM | share of first thermal shift peak (Pin1 [2]; Table 3): 50% | share of second thermal shift peak (Pin1 [2]; Table 3): 50% | ΔTm (° C.), first of two peaks (Pin1 [2]; [7]): −0.45 ± 0.15 °C | ΔTm (° C.), second printed of two peaks (Pin1 [2]; [7]): −14.28 ± 0.28 °C

SMILES: NC(=O)[C@H](Cc1c[nH]c2ccccc12)NC(=O)[C@@H]1CCCCN1C(=O)[C@H](Cc1ccc(Cl)cc1)NC(=O)CCl [158G12] (ClAc-[Phe(4-Cl)]-[Pip]-Trp-NH2)
IC50 (Pin1 [1]; Table 3, ± SD from duplicates): 0.527 ± 0.038 µM | ΔTm (° C.) (Pin1 [2]; [4]): −12.19 ± 0.07 °C

SMILES: CN[C@@H](Cc1ccccc1)C(=O)N1CCCC[C@H]1C(=O)N[C@@H](Cc1c[nH]c2ccccc12)C(=O)N[C@@H](CCCNC(N)=O)C(N)=O [158B3] (HELM PEPTIDE1{[meF].[O=C([C@@H]1CCCCN1[*:1])[*:2]].W.[Cit].[am]}$$$$V2.0)
IC50 (Pin1 [1]): > 10 µM | IC50 (Pin1 [1]; Table 2, in μM): > 10 µM | ΔTm (° C.) (Pin1 [2]; Table 2, ± SE of four replicates): 0.62 ± 0.04 °C | ΔTm (Pin1 [2]; [8]): +0.62 °C
